Measured values reported in patent publication US10611789B2, “Crystalline form A of rebaudioside D, and preparation method and application therefor” (ZHUCHENG HAOTIAN PHARM CO., LTD, priority 2015, dated 2020).
Values after ≈ are worked out from the molar mass of the structure shown.

How the values were obtained:
Assay type in all cases: physicochemical
[1] = dynamic vapor sorption (DVS) analysis; conditions: 25° C.
Description: DVS analysis: a DVS Intrinsic Dynamic Moisture Adsorption Device of UK SMS Instrument Company was used for detection. The measuring temperature: 25° C.; the relative humidity: 0-95%.

[2] = HPLC chemical stability on storage; conditions: after six months of storage (25° C., relative humidity 60%)
Description: HPLC analysis: a 1260 infinity liquid chromatograph from American Agilent Technologies was used for determination. Preparation method for the sample solution: 25-50 mg of the Rebaudioside D sample was accurately weighed, and placed in a 25 ml of volumetric flask, and then a solution of water-acetonitrile (7:3, v/v) was added for dissolution and the volume was set to the scale. The fomulation method for sodium phosphate buffer (specification: 10 mmol/L, pH: 2.6): 2.76 g of sodium dihydrogen phosphate was dissolved in 2 L of water, phosphoric acid was added and the pH was adjusted to 2.6. Chromatographic column: Phenomenex's Luna 5μ C18 (2) 100 A column. Injection volume: 5 μl. Flow rate: 1.0 mL/min. Column temperature: 40° C. Detector: 210 nm of UV detection. Mobile phase: acetonitrile and sodium phosphate buffer (specification: 10 mmol/L, pH: 2.6) at a ratio of 32:68.

[3] = water solubility of crystal form A
[4] = XRPD crystal form stability on storage
Description: XRPD analysis: a Bruker D8 advance diffractometer from German Brook Instruments Co. LTD was used for detection at room temperature, using Cu-Kα ray (λ=1.5418 Å) with 2θ angle scanning from 3° to 40° at a scanning speed of 0.2°/second.
The crystal form A of Rebaudioside D prepared in the above examples was subjected to XRPD analysis under the conditions of 25° C. and RH≤30%. The analysis results are shown in FIG. 6, and it can be seen from FIG. 6 that the crystal form thereof is unchanged and has a good stability.
The crystal form A of Rebaudioside D prepared in the above examples was stored for 6 months under the conditions of 25° C. and RH≤60%. The analysis results are shown in FIG. 7, and it can be seen from FIG. 7 that the crystal form thereof is unchanged and has a good stability.

mass percentage of absorbed moisture ([1]; within a relative humidity of 0-40%): 0-3.4%
mass percentage of absorbed moisture ([1]; within a relative humidity of 40-100%): 3.4-7.1%
variation of HPLC purity compared with the raw material [2]: less than 0.5%
solubility [3]: ~600 µg/mL (≈ 531 µM)
crystal form by XRPD ([4]; 25° C. and RH≤30%): unchanged
crystal form by XRPD after storage ([4]; stored for 6 months, 25° C. and RH≤60%): unchanged
Structure (SMILES): C=C1C[C@@]23CCC4[C@@](C)(CCC[C@@]4(C)C(=O)O[C@@H]4OC(CO)[C@@H](O)C(O)C4OC4OC(CO)[C@@H](O)C(O)C4O)C2CC[C@]1(OC1OC(CO)C(O)C(OC2OC(CO)C(O)C(O)C2O)C1OC1OC(CO)C(O)C(O)C1O)C3 (stereo partly drawn) [crystal form A of Rebaudioside D, Rebaudioside D]
